Measurements taken from patent US8709303B2, “Dielectric insulation medium” (ABB Research Ltd., priority 2010, dated 2014).

Tests used:
[1] = risk for human toxicity, concluded from mammalian HFC tests; settings: concluded from available results of mammalian HFC tests
Description: This can be concluded from the available results of mammalian HFC (hydrofluorocarbon) tests. Also, information available on commercial hydrofluoro monoethers give no evidence of carcinogenicity, mutagenicity, reproductive/developmental effect and other chronic effects of the compounds of the present application.

thermal stability = settings: 175° C. for 30 days
[2] = products include I2; cited from earlier work

Row | SMILES | risk for human toxicity [1] | thermal stability (thermal stability) | temperature at which decomposition into hazardous products starts [2]
1 | COC(F)(F)C(F)(F)F [pentafluoro-ethyl-methyl ether, pentafluoro-ethyl-methyl ether (CH3—O—CF2CF3)] | low risk for human toxicity | thermally stable | 
2 | FC(F)(F)I [CF3I, trifluoroiodomethane (CF3I)] |  |  | around 100 °C
3 | FC(F)(F)COC(F)(F)F [2,2,2-trifluoroethyl-trifluoromethyl ether (CF3—O—CH2CF3)] | low risk for human toxicity |  | 
